Source: ChEMBL document CHEMBL1148763 (J Med Chem, 2007)

Target: T1, Dihydrofolate reductase (Bacillus anthracis, UniProt Q81R22)
T1 sequence (Q81R22 whole entry): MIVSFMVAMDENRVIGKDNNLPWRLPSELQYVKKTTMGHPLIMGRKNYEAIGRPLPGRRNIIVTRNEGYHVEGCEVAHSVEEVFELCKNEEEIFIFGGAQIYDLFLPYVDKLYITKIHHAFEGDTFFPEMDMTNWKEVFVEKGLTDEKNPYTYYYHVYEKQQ
Assay: Inhibition of Bacillus anthracis DHFR

`CN(c1ccc(C(=O)NC(CCC(=O)O)C(=O)O)cc1)c1cnc2nc(N)nc(N)c2n1` (stereo unspecified) gave an IC50 of 15 nM.
